Experiment: Dialysis of fat emulsion in aqueous glycerin, content of glutathione derivative retained (Example 23)
Format: physicochemical
Conditions: 2 mg/ml fat emulsion, dialysis 2 days at room temperature in 2.3 (w/v)% glycerin, 1.2 μm filter; uncorrected for volume increase
Protocol: The glutathione derivative combined with a fat emulsion was dialyzed in an aqueous solution of glycerin to compare changes in the content of the glutathione derivative in the fat emulsion.
Thereupon, the concentration of the glutathione derivative in the fat emulsion was adjusted to 2 mg/ml.
(2) These fat emulsions (14 ml) were dialyzed in 1 liter of a 2.3 (w/v)% aqueous solution of glycerin. Dialysis was carried out at room temperature for 2 days with one change of the aqueous glycerin solution during the dialysis. All the fat emulsions after dialysis were about 15.6 ml. They were filtered by a 1.2 μm filter and the content of the glutathione derivative was measured.

## CCOC(=O)[C@@H](N)CCC(=O)N[C@@H](CSCc1ccccc1)C(=O)N[C@@H](C(=O)OCC)c1ccccc1.Cl [Comparative Example 1, Glu(Cys(Bzl)-D-Phg-O(Et))-O(Et)hydrochloride, reference compound]
  Content of the glutathione derivative in the fat emulsion after dialysis, of the initial feed: 14.0%

From patent publication US6627732B1, “Glutathione derivatives and their dosage forms” (Teijin Limited, priority 1998, dated 2003)
